According to patent publication US20220242843A1, “PROCESS FOR PREPARING A COUMARIN-CAGED FORSKOLIN DERIVATIVE, FORSKOLIN DERIVATIVE AND USE OF SAID FORSKOLIN DERIVATIVE” (Forschungszentrum Juelich GmbH, priority 2019, published 2022):

Key:
[1] = Photolysis of JCF 1 in MeOH under 368.8 nm irradiation, followed by mass spectrometry; assay type: physicochemical; conditions: 100 μM in MeOH; 368.8 nm±5 nm; approximately 12.5 mW/cm^2
Procedure: The photolysis of JCF 1 is carried out under controlled conditions in order to quantitatively detect the release of forskolin carbamate 10 as a function of the amount of light absorbed: 0.16 ml of a 100 μM solution of JCF 1 in MeOH is added to a quartz glass cuvette (width: 4 mm; depth (optical path): 10 mm->fill level 4 mm). The “Intensilight” light source (excitation lamp of a Nikon TI Eclipse fluorescence microscope) is used as the excitation source, the light of which is guided through a gel light guide (active diameter: 4 mm) and a narrowband bandpass filter (368.8 nm±5 nm) onto the liquid column in the cuvette. […]
The irradiated samples are then examined using mass spectrometry (mass spectrometer: MSQ Plus from ThermoScientific; ionization: ESI-interface with a cone voltage of 50 V, eluent: methanol, water, glacial acetic acid, /50, 50, 0.02/vol, vol, vol; flow rate 0.2 ml/min; direct injections of 20 μl of the respective irradiated samples via a Rheodyne injection valve (7725i)). The mass trace m/z 511 and the mass range m/z 807-811 are recorded. The integrals of the peaks of the chromatogram of the mass trace m/z 511 (see FIG. 10) are evaluated. With an exposure time of 320 seconds, no more signals can be detected in the mass range m/z 807-811 (starting compound), and therefore a complete conversion can be assumed after this time under the above-described conditions.

[2] = system: peripheral membrane adenylyl cyclases; assay: Validation on eukaryotic cell line expressing CNG channel and GCaMP3.0: Ca2+-dependent fluorescence as readout of intracellular cAMP increase after UV exposure; assay type: cell-based; conditions: 100 μM IBMX
Text: The substance JCF 1 described according to embodiments of the invention was validated on eukaryotic cell cultures in which the increase in the intracellular cAMP concentration, which results from the binding of the biologically active forskolin carbamate 10 (FIG. 9) to peripheral membrane adenylyl cyclases which are endogenously present in the cells, using a fluorescence-based sensitive detection process.^14 In this regard, a cell line was used in which a cyclic-nucleotide-gated (CNG) ion channel is constitutively expressed. These channels are typically expressed in olfactory sensory neurons of the olfactory epithelium and open when the intracellular cAMP concentration increases. […] The inflow of Ca^2+ can be detected with Ca^2+-sensitive dyes or genetically encoded Ca^2+ indicators, such as GCaMP sensors, in a fluorescence reader or with a fluorescence microscope. […] The Ca^2+-dependent change in the fluorescence change can be detected and quantified with the aforementioned processes.
Cells of the cell line described were seeded in 96-well multi-well plates (MWP) and increased to a density of approximately 25,000. […] The basal fluorescence in the wells of 96-well MWP was then measured with a fluorescence reader. […] The basal fluorescence in the wells was then measured again before the entire 96-well MWP plate was exposed to light using a UV lamp device (FIG. 11, FIG. 12). […]

SMILES: C=C[C@@]1(C)CC(=O)[C@]2(O)[C@@]3(C)[C@@H](O)CCC(C)(C)[C@@H]3[C@H](OC(=O)NCCN(C)C(=O)OCc3cc(=O)oc4cc(O)c(Br)cc34)[C@H](OC(C)=O)[C@@]2(C)O1 [JCF 1, (3R,4aR,5S,6S,6aS,10S,10aR,10bS)-6-(((2-((((6-bromo-7-hydroxy-2-oxo-2H-chromen-4-yl)methoxy)carbonyl)(methyl)amino)ethyl)carbamoyl)oxy)-10,10b-dihydroxy-3,4a,7,7,10a-pentamethyl-1-oxo-3-vinyldodecahydro-1H-benzo[f]chromen-5-yl acetate]
- exposure time after which no more signals of starting compound (m/z 807-811) can be detected; complete conversion assumed [1]: 320 s
- change in fluorescence relative to the values achieved by adding non-caged NKH 477 ([2]; 10 μM and 30 μM, after UV exposure): approximately 50%
- Ca2+-dependent fluorescence emission after UV exposure (release of forskolin carbamate 10) ([2]; cells loaded with 10 μM and 30 μM for 30 min in the dark, UV lamp exposure): significant increase
